Test system: SMARTCAR-MTH1-wt-HiBiT (Jurkat.7 cells)
Assay: HiBit Lytic Assay (HiBit DC50, MTH1 degraders of Table 2)
Assay type: cell-based, human
Conditions: Jurkat.7 SMARTCAR-MTH1-wt-HiBiT cells, compound treatment time 4 hr, 11-point half log dose response
Procedure: Example 3. HiBit Lytic Assay
• Compound is made at 10 mM, half log dilution, 11 points. • MDR plates can also be ordered from Frontier with same format. • 1. Barcode a 384LDV plate (384-well Low Dead Volume Microplate, Labcyte LP-0200) (Echo compatible) on the left side. • 2. Transfer 13.6 μL of 10 mM compound into column 1 of LDV plate (Labcyte). • 3. Fill column 2-11 and column 23 of MDR plate with 9.30 μL of DMSO. • 4. Serial dilute 3.16 fold from column 1 to 2 by transferring 4.30 μL from column 1 to column 2, and so on to column 11. *Change tip in every dilution to prevent compound carryover effect! • 5. Seal the plate with Plate Sealer, then store the MDR plate at room temperature for short term storage and in −20° C. for long term storage.
• Cells are treated with 30 nL of each compound at 10 mM, half log dilution, 11 points with final concentration of 1000 nM or 833 nM, half log dilution, 11 points, in duplicates. Final DMSO concentration is 0.1%. • 1. Barcode the plates made on the left side and label the plates with silver marker. • 2. Dispense with the following scheme: • a. 30 nL of compound into corresponding wells in cell plates via Echo550 with “MDR32_HiBiT16_30 nL”. Top concentration will be 1000 nM. • 3. Seal the plate with Plate Sealer.
• Cells are dispensed at density specified in Cell Line Table in 384-well microplate. • 1. Culture cells to between 50-80% of confluence in sterile culture flasks of appropriate size. • 2. For Adherent Cell Lines: • a. Aspirate off growth media in culture flask, and wash off the Phenol Red media with 5 mL of 1×PBS. • b. Add 5 mL of Trypsin to the cells, incubate at 37° C. for 5 minutes. • c. Add 5 mL of growth media to the trypsinzed cells, and resuspend. • 3. Remove 10 μL of cells, and resuspend the cells with 10 μL of Trypan Blue. Insert the solution to counting chamber slide, and count the cells via cell counter. • 4. Adjust the cell concentration to specified plating density, and strain the cells with cell strainer. • 5. Dispense the cells via E1-ClipTip™ Electronic Multichannel Pipettes or Multidrop™ Combi Reagent Dispenser with Standard tube dispensing cassette: • a. Prime the cassette with 10-20 mL of ddH2O. • b. Prime the cassette with 10-20 mL of cells. • c. Dispense the cells at low speed for 30 μL/well in Corning® 384 Well Low Flange Black Flat Bottom Polystyrene TC-Treated Microplate. • d. Wash the cassette with 10-20 mL of ddH2O, follow by 10-20 mL of 70% EtOH, then again with 10-20 mL of ddH2O. • 6. Incubate the plates at 37° C.×compound treatment time.
• 1. If not already, bring Nano-Glo® HiBiT Lytic Buffer to room temperature. • 2. Determine the amount of reagent needed. A volume of reagent equal to the volume of media in the well should be added (i.e. 30 μL of cells will need 30 μL of HiBiT Lytic reagent). • 3. Into a given volume of buffer, dilute the substrate 50-fold and the LgBiT protein 100-fold. For example, to make 10 ml of reagent, add the following: • 10 ml Nano-Glo® HiBiT Lytic Buffer • 200 μl Nano-Glo® HiBiT Lytic Substrate • 100 μl LgBiT Protein • The reagent should be reconstituted immediately before use. However, once reconstituted, it should take about 4 hours for the activity to decrease 10%. • 4. Cool down the cell plate to room temperature for 10-15 minutes without lid. • 5. Dispense the HiBiT Lytic Reagent via E1-ClipTip™ Electronic Multichannel Pipettes or Multidrop™ Combi Reagent Dispenser with Standard tube dispensing cassette: • a. Prime the cassette with 10-20 mL of ddH2O. • b. Prime the cassette with 10-20 mL of CTG 2.0. • c. Dispense the HiBiT Lytic Reagent at medium speed for 30 μL/well in cell plate to column 1-23 (column 24 will be used as plate background). • d. Wash the cassette with 10-20 mL of ddH2O, follow by 10-20 mL of 70% EtOH, then again with 10-20 mL of ddH2O. • 6. Incubate the cell plate at room temperature for 10 minutes without lid. • 7. […]

`CNC(=O)c1cnc2cc(C(F)(F)F)c(-c3ccc(C(=O)NCCCCNC(=O)COc4cccc5c4C(=O)N(C4CCC(=O)NC4=O)C5=O)c(F)c3)cc2c1Nc1ccccc1` (stereo not drawn) [Compound 379, 6-(4-((4-(2-((2-(2,6-dioxopiperidin-3-yl)-1,3-dioxoisoindolin-4-yl)oxy)acetamido)butyl)carbamoyl)-3-fluorophenyl)-N-methyl-4-(phenylamino)-7-(trifluoromethyl)quinoline-3-carboxamide] gave a DC50 of under 100 nM.

Work on `CNC(=O)c1cnc2cc(OC)c(-c3ccc(C(=O)NCCCCNC(=O)[C@@H](C)Nc4cccc5c4C(=O)N(C4CCC(=O)NC4=O)C5=O)nc3)cc2c1Nc1ccccc1` (stereo partly drawn) [Compound 382, 6-(6-((4-((2R)-2-((2-(2,6-dioxopiperidin-3-yl)-1,3-dioxoisoindolin-4-yl)amino)propanamido)butyl)carbamoyl)pyridin-3-yl)-7-methoxy-N-methyl-4-(phenylamino)quinoline-3-carboxamide] yielded a DC50 of under 100 nM.

Work on `CNC(=O)c1cnc2ccc(-c3ccc(CCCCCNC(=O)CNc4cccc5c4C(=O)N(C4CCC(=O)NC4=O)C5=O)nc3)cc2c1Nc1ccccc1` (stereo not drawn) [Compound 385, 4-anilino-6-[6-[5-[[2-[[2-(2,6-dioxo-3-piperidyl)-1,3-dioxo-isoindolin-4-yl]amino]acetyl]amino]pentyl]-3-pyridyl]-N-methyl-quinoline-3-carboxamide] yielded a DC50 of under 100 nM.

With `CNC(=O)c1cnc2cc(C(F)(F)F)c(-c3ccc(C(=O)NCCCCn4cc(CNc5cccc6c5C(=O)N(C5CCC(=O)NC5=O)C6=O)nn4)nc3)cc2c1Nc1ccccc1` (stereo not drawn) [Compound 386, 6-(6-((4-(4-(((2-(2,6-dioxopiperidin-3-yl)-1,3-dioxoisoindolin-4-yl)amino)methyl)-1H-1,2,3-triazol-1-yl)butyl)carbamoyl)pyridin-3-yl)-N-methyl-4-(phenylamino)-7-(trifluoromethyl)quinoline-3-carboxamide] the DC50 was under 100 nM.

Molecule `CNC(=O)c1cnc2ccc(-c3nc(C(=O)NCCCCNC(=O)CNc4cccc5c4C(=O)N(C4CCC(=O)NC4=O)C5=O)cs3)cc2c1Nc1ccccc1` (stereo not drawn) [Compound 387, 2-[4-anilino-3-(methylcarbamoyl)-6-quinolyl]-N-[4-[[2-[[2-(2,6-dioxo-3-piperidyl)-1,3-dioxo-isoindolin-4-yl]amino]acetyl]amino]butyl]thiazole-4-carboxamide] has a DC50 of under 100 nM.

`CNC(=O)c1cnc2cc(C(F)(F)F)c(-c3ccc(C(=O)NCCCCNC(=O)CNc4cccc5c4C(=O)N(C4CCC(=O)NC4=O)C5=O)nc3)cc2c1Nc1ccccc1` (stereo not drawn) [Compound 388, 6-(6-((4-(2-((2-(2,6-dioxopiperidin-3-yl)-1,3-dioxoisoindolin-4-yl)amino)acetamido)butyl)carbamoyl)pyridin-3-yl)-N-methyl-4-(phenylamino)-7-(trifluoromethyl)quinoline-3-carboxamide] showed a DC50 of under 100 nM.

`CNC(=O)c1cnc2cc(F)c(-c3ccc(C(=O)NCCCCn4cc(CNc5cccc6c5C(=O)N(C5CCC(=O)NC5=O)C6=O)nn4)nc3)cc2c1Nc1ccccc1` (stereo not drawn) [Compound 389, 6-(6-((4-(4-(((2-(2,6-dioxopiperidin-3-yl)-1,3-dioxoisoindolin-4-yl)amino)methyl)-1H-1,2,3-triazol-1-yl)butyl)carbamoyl)pyridin-3-yl)-7-fluoro-N-methyl-4-(phenylamino)quinoline-3-carboxamide] showed a DC50 of under 100 nM.

With `COc1ccc(CNc2c(C(=O)NC3CC3)cnc3cc(OC)c(-c4ccc(C(=O)NCCCCn5cc(CNc6cccc7c6C(=O)N(C6CCC(=O)NC6=O)C7=O)nn5)nc4)cc23)cc1` (stereo not drawn) [Compound 395, N-cyclopropyl-6-[6-[4-[4-[[[2-(2,6-dioxo-3-piperidyl)-1,3-dioxo-isoindolin-4-yl]amino]methyl]triazol-1-yl]butylcarbamoyl]-3-pyridyl]-7-methoxy-4-[(4-methoxyphenyl)methylamino]quinoline-3-carboxamide] the DC50 was under 100 nM.

In the case of `COc1cc2ncc(C(=O)NC3CC3)c(Nc3ccccc3)c2cc1-c1ccc(C(=O)NCCCCn2cc(CNc3cccc4c3C(=O)N(C3CCC(=O)NC3=O)C4=O)nn2)nc1` (stereo not drawn) [Compound 396, 4-anilino-N-cyclopropyl-6-[6-[4-[4-[[[2-(2,6-dioxo-3-piperidyl)-1,3-dioxo-isoindolin-4-yl]amino]methyl]triazol-1-yl]butylcarbamoyl]-3-pyridyl]-7-methoxy-quinoline-3-carboxamide], the DC50 is reported as under 100 nM.

For `CNc1c(C(=O)NC2CC2)cnc2cc(OC)c(-c3ccc(C(=O)NCCCCn4cc(CNc5cccc6c5C(=O)N(C5CCC(=O)NC5=O)C6=O)nn4)nc3)cc12` (stereo not drawn) [Compound 397, N-cyclopropyl-6-[6-[4-[4-[[[2-(2,6-dioxo-3-piperidyl)-1,3-dioxo-isoindolin-4-yl]amino]methyl]triazol-1-yl]butylcarbamoyl]-3-pyridyl]-7-methoxy-4-(methylamino)quinoline-3-carboxamide], the DC50 was under 100 nM.

`COc1cc2ncc(C(=O)NC3CC3)c(N)c2cc1-c1ccc(C(=O)NCCCCn2cc(CNc3cccc4c3C(=O)N(C3CCC(=O)NC3=O)C4=O)nn2)nc1` (stereo not drawn) [Compound 398, 4-amino-N-cyclopropyl-6-[6-[4-[4-[[[2-(2,6-dioxo-3-piperidyl)-1,3-dioxo-isoindolin-4-yl]amino]methyl]triazol-1-yl]butylcarbamoyl]-3-pyridyl]-7-methoxy-quinoline-3-carboxamide] was tested, and the DC50 was under 100 nM.

For `CNc1c(C(=O)NC2CC2)cnc2cc(F)c(-c3ccc(C(=O)NCCCCCCCc4cnc5c(c4)CN(C4CCC(=O)NC4=O)C5=O)c(F)c3)cc12` (stereo not drawn) [Compound 401, N-cyclopropyl-6-[4-[7-[6-(2,6-dioxo-3-piperidyl)-7-oxo-5H-pyrrolo[3,4-b]pyridin-3-yl]heptylcarbamoyl]-3-fluoro-phenyl]-7-fluoro-4-(methylamino)quinoline-3-carboxamide], the DC50 was under 100 nM.

Work on `CNc1c(C(=O)NC2CC2)cnc2cc(F)c(-c3ccc(C(=O)NCCCCCCCCc4cnc5c(c4)CN(C4CCC(=O)NC4=O)C5=O)c(F)c3)cc12` (stereo not drawn) [Compound 405, N-cyclopropyl-6-[4-[8-[6-(2,6-dioxo-3-piperidyl)-7-oxo-5H-pyrrolo[3,4-b]pyridin-3-yl]octylcarbamoyl]-3-fluoro-phenyl]-7-fluoro-4-(methylamino)quinoline-3-carboxamide] yielded a DC50 of under 100 nM.

With `CNc1c(C(=O)NC2CC2)cnc2cc(F)c(-c3ccc(C(=O)NCCCCCCCCc4ccc5c(n4)CN(C4CCC(=O)NC4=O)C5=O)c(F)c3)cc12` (stereo not drawn) [Compound 408, N-cyclopropyl-6-[4-[8-[6-(2,6-dioxo-3-piperidyl)-5-oxo-7H-pyrrolo[3,4-b]pyridin-2-yl]octylcarbamoyl]-3-fluoro-phenyl]-7-fluoro-4-(methylamino)quinoline-3-carboxamide] the DC50 was under 100 nM.

`CNc1c(C(=O)NC2CC2)cnc2cc(C(F)(F)F)c(-c3ccc(C(=O)NCCCCCCCCc4ccc5c(n4)CN(C4CCC(=O)NC4=O)C5=O)c(F)c3)cc12` (stereo not drawn) [Compound 409, N-cyclopropyl-6-[4-[8-[6-(2,6-dioxo-3-piperidyl)-5-oxo-7H-pyrrolo[3,4-b]pyridin-2-yl]octylcarbamoyl]-3-fluoro-phenyl]-4-(methylamino)-7-(trifluoromethyl)quinoline-3-carboxamide] was tested, and the DC50 was under 100 nM.
